The values that follow come from ChEMBL document CHEMBL1121457, “Long-acting opiate agonists and antagonists: 14-hydroxydihydromorphinone hydrazones” (1980).

For experiment [1], the species on record is Rattus norvegicus. As to the kind of experiment: Percent decrease in activity for the inhibition of [3H]-Naltrexone in rat brain homogenates in the presence of standard at dose of 10 nM compared with that of control (4930+/-143 cpm). The class given is functional.
Experiment [2] is filed under the species Rattus norvegicus. As to the kind of experiment: Percent decrease in activity for the inhibition of [3H]naltrexone in rat brain homogenates in the presence of NaCl at dose of 4 nM compared with that of control (6070+/-75 cpm). Type of experiment: functional.
For experiment [3], the species on record is Rattus norvegicus. Kind of experiment: The compound was tested in vitro for the inhibition of [3H]naltrexone in rat brain homogenates in the presence of standard at 10 nM dose. The class given is functional.
The species entered for experiment [4] is Rattus norvegicus. As to the kind of experiment: The compound was tested in vitro for the inhibition of [3H]naltrexone in rat brain homogenates in the presence of NaCl and MnCl2 at 10 nM dose. The class given is functional, organism-based.
The species entered for experiment [5] is Rattus norvegicus. Kind of experiment: Percent decrease in activity for the inhibition of [3H]naltrexone in rat brain homogenates in the presence of NaCl and MnCl2 at dose of 10 nM compared with that of control (5840+/-72 cpm). Type of experiment: functional.
Experiment [6] is filed under the species Rattus norvegicus. Kind of experiment: Percent decrease in activity for the inhibition of [3H]naltrexone in rat brain homogenates in the presence of standard at dose of 4 nM compared with that of control (4930+/-143 cpm). The class given is functional.
For experiment [7], the species on record is Rattus norvegicus. As to the kind of experiment: The compound was tested in vitro for the inhibition of [3H]-Naltrexone in rat brain homogenates in the presence of NaCl at 10 nM dose. Type of experiment: functional.
For experiment [8], the species on record is Rattus norvegicus. Kind of experiment: The compound was tested in vitro for the inhibition of [3H]naltrexone in rat brain homogenates in the presence of standard at 4 nM dose. The class given is functional.
For another experiment, the species on record is Mus musculus. Kind of experiment: Percent analgesia of compound was measured in mice by using tail-flick assay. Type of experiment: functional. On the technique in general: In hot-plate and tail-flick tests a longer latency is read as antinociception.
Experiment [9] is filed under the species Rattus norvegicus. Kind of experiment: Percent decrease in activity for the inhibition of [3H]naltrexone in rat brain homogenates in the presence of NaCl at dose of 10 nM compared with that of control (6070+/-75 cpm). The class given is functional.
The species entered for experiment [10] is Rattus norvegicus. As to the kind of experiment: Percent decrease in activity for the inhibition of [3H]naltrexone in rat brain homogenates in the presence of MnCl2 at dose of 10 nM compared with that of control (4080+/-138 cpm). Type of experiment: functional.
Experiment [11] is filed under the species Rattus norvegicus. As to the kind of experiment: The compound was tested in vitro for the inhibition of [3H]naltrexone in rat brain homogenates in the presence of MnCl2 at 10 nM dose.
The species named for experiment [12] is Rattus norvegicus. Kind of experiment: Percent decrease in activity for the inhibition of [3H]naltrexone in rat brain homogenates in the presence of NaCl and MnCl2 at dose of 4 nM compared with that of control (5840+/-72 cpm). The class given is functional.
The species named for experiment [13] is Rattus norvegicus. As to the kind of experiment: The compound was tested in vitro for the inhibition of [3H]naltrexone in rat brain homogenates in the presence of NaCl and MnCl2 at 4 nM dose. The class given is functional, organism-based.
The species named for experiment [14] is Rattus norvegicus. Kind of experiment: The compound was tested in vitro for the inhibition of [3H]-Naltrexone in rat brain homogenates in the presence of MnCl2 at 10 nM dose. Type of experiment: functional.
The species named for experiment [15] is Rattus norvegicus. As to the kind of experiment: The compound was tested in vitro for the inhibition of [3H]-Naltrexone in rat brain homogenates in the presence of MnCl2 at 4 nM dose. Type of experiment: functional.
The species entered for experiment [16] is Rattus norvegicus. As to the kind of experiment: Percent decrease in activity for the inhibition of [3H]naltrexone in rat brain homogenates in the presence of MnCl2 at dose of 4 nM compared with that of control (4080+/-138 cpm). The class given is functional.

For the compound `CN1CC[C@]23c4c5ccc(O)c4O[C@H]2/C(=N\N)CC[C@@]3(O)[C@H]1C5` [OXYMORPHAZONE], the Decrease in the experiment filed under Rattus norvegicus [1] came to 24%; in the experiment listed under Rattus norvegicus [2], 5%; in the experiment listed under Rattus norvegicus [5], 22%; in the experiment listed under Rattus norvegicus [6], 2%. The Binding activity in the experiment listed under Rattus norvegicus [3] is 3750 c.p.m; in the experiment filed under Rattus norvegicus [4], 4560 c.p.m; in the experiment listed under Rattus norvegicus [7] it was 5520 c.p.m; in the experiment listed under Rattus norvegicus [8] it was 4860 c.p.m. In addition, in the experiment listed under Mus musculus, the Analgesia came out at 82%.

`C=CCN1CC[C@]23c4c5ccc(O)c4O[C@H]2C(=O)CC[C@@]3(O)[C@H]1C5` [NALOXONE] displayed an Analgesia in the experiment listed under Mus musculus of 54%.

Regarding `O=C1CC[C@@]2(O)[C@H]3Cc4ccc(O)c5c4[C@@]2(CCN3CC2CC2)[C@H]1O5` [NALTREXONE], the Analgesia in the experiment listed under Mus musculus was 67%.

For `C=CCN1CC[C@]23c4c5ccc(O)c4O[C@H]2/C(=N\N)CC[C@@]3(O)[C@H]1C5` [NALOXAZONE], the Decrease is 24% in the experiment listed under Rattus norvegicus [9], 11% in the experiment filed under Rattus norvegicus [1] and 23% in the experiment filed under Rattus norvegicus [10]. The results for the Binding activity in the experiment filed under Rattus norvegicus [3], in the experiment filed under Rattus norvegicus [7] and in the experiment filed under Rattus norvegicus [11] were 4400 c.p.m, 4640 c.p.m and 3140 c.p.m, respectively. The Analgesia in the experiment listed under Mus musculus is given as 0%.

`N/N=C1/CC[C@@]2(O)[C@H]3Cc4ccc(O)c5c4[C@@]2(CCN3CC2CC2)[C@H]1O5` [NALTREXAZONE]: the Decrease in the experiment listed under Rattus norvegicus [9] was 64%; in the experiment filed under Rattus norvegicus [1], 61%; in the experiment listed under Rattus norvegicus [12], 40%; in the experiment listed under Rattus norvegicus [2] it was 39%; in the experiment filed under Rattus norvegicus [5], 62%; in the experiment listed under Rattus norvegicus [6] it was 39%. The Decrease in the experiment filed under Rattus norvegicus [16] worked out at 38%; in the experiment listed under Rattus norvegicus [10] it was 62%. The Binding activity in the experiment filed under Rattus norvegicus [13] amounted to 3480 c.p.m; in the experiment listed under Rattus norvegicus [3], 1910 c.p.m; in the experiment listed under Rattus norvegicus [4], 2240 c.p.m; in the experiment listed under Rattus norvegicus [14], 1550 c.p.m; in the experiment filed under Rattus norvegicus [15] it was 2570 c.p.m; in the experiment filed under Rattus norvegicus [7] it was 2200 c.p.m. In addition, the Binding activity in the experiment filed under Rattus norvegicus [8] amounted to 2980 c.p.m. For the same compound, the Analgesia in the experiment filed under Mus musculus is recorded as 0%.

`CN1CC[C@]23c4c5ccc(O)c4O[C@H]2C(=O)CC[C@@]3(O)[C@H]1C5` [OXYMORPHONE]: the Analgesia in the experiment filed under Mus musculus was 17%.
